Key:
[1] = system: testosterone/E2 ratio; assay: Example 3 study in hypogonadal men: testosterone/E2 ratio (ITT); format: in vivo, human; conditions: for Testosterone/E2 Ratio % Change from Baseline to Week 2, Max / Testosterone/E2 Ratio % Change from Baseline to Week 2, Mean ± SD / Testosterone/E2 Ratio % Change from Baseline to Week 2, Median / Testosterone/E2 Ratio % Change from Baseline to Week 2, Min: Week 2, (Week minus Baseline) divided by Baseline; for Testosterone/E2 Ratio % Change from Baseline to Week 2, Max / Testosterone/E2 Ratio % Change from Baseline to Week 2, Mean ± SD / Testosterone/E2 Ratio % Change from Baseline to Week 2, Median / Testosterone/E2 Ratio % Change from Baseline to Week 2, Min / Testosterone/E2 Ratio % Change from Baseline to Week 4, Max / Testosterone/E2 Ratio % Change from Baseline to Week 4, Mean ± SD / Testosterone/E2 Ratio % Change from Baseline to Week 4, Median / Testosterone/E2 Ratio % Change from Baseline to Week 4, Min / Testosterone/E2 Ratio % Change from Baseline to Week 6, Max / Testosterone/E2 Ratio % Change from Baseline to Week 6, Mean ± SD / Testosterone/E2 Ratio % Change from Baseline to Week 6, Median / Testosterone/E2 Ratio % Change from Baseline to Week 6, Min: LOCF; for Testosterone/E2 Ratio % Change from Baseline to Week 4, Max / Testosterone/E2 Ratio % Change from Baseline to Week 4, Mean ± SD / Testosterone/E2 Ratio % Change from Baseline to Week 4, Median / Testosterone/E2 Ratio % Change from Baseline to Week 4, Min: Week 4, (Week minus Baseline) divided by Baseline; for Testosterone/E2 Ratio % Change from Baseline to Week 6, Max / Testosterone/E2 Ratio % Change from Baseline to Week 6, Mean ± SD / Testosterone/E2 Ratio % Change from Baseline to Week 6, Median / Testosterone/E2 Ratio % Change from Baseline to Week 6, Min: Week 6, (Week minus Baseline) divided by Baseline
Experimental: (§1) A randomized, double-blind, placebo controlled, parallel-group study of once-daily doses of fispemifene (100, 200, and 300 mg/day) given for 4 weeks was conducted in a population of hypogonadal men. Subjects were required to meet all of the following inclusion criteria at screening and prior to randomization to be eligible for the study:
(§2) There were 77 subjects total. The number of subjects randomized to the 100 mg fispemifene, 200 mg fispemifene, 300 mg fispemifene, and placebo arms were 21, 21, 19, and 16, respectively.
(§3) Subjects were randomly assigned to one of four treatment groups in a 1:1:1:1 ratio: • Treatment A (100 mg): fispemifene 100 mg+placebo+placebo; • Treatment B (200 mg): fispemifene 100 mg+fispemifene 100 mg+placebo; • Treatment C (300 mg): fispemifene 100 mg+fispemifene 100 mg+fispemifene 100 mg; and • Treatment D (Placebo): placebo+placebo+placebo.
(§4) Subjects took one dose (three capsules) of study medication once a day at home for 4 weeks. Capsules were to be taken in the morning immediately after breakfast, with the exception of the morning of the Week 4 visit. Capsules were not to be taken on the morning of the Week 4 visit because trough plasma levels of fispemifene were determined by a blood sample taken at this visit. Each subject was randomly assigned to treatment with one of the 3 different dose regimens of fispemifene or placebo vehicle. Each subject received a 4 week supply of study drug.
(§5) Blood samples were taken from the subjects within 1 week prior to dosing with study drug to establish baseline values; after 2 and 4 weeks of randomization; and 2 weeks after the last dose of study drug. Serum was prepared from those samples and used to determine the mean % change from baseline in total testosterone, free testosterone, SHBG (sex hormone-binding globulin), DHT (dihydrotestosterone), E2 (estradiol), LH (luteinizing hormone), FSH (follicle stimulating hormone), and inhibin B.
(§6) 3. Percent change from baseline in SHBG, DHT, E2, LH, FSH, inhibin B, and testosterone/E2 ratio at Weeks 2, 4, and 6.

[2] = system: inhibin B; assay: Example 3 study in hypogonadal men: serum inhibin B (ITT); format: in vivo, human; conditions: 100 mg, LOCF
Experimental: as §1, §2, §3, §4, §5, §6

[3] = Week 2, (Week minus Baseline) divided by Baseline
[4] = Week 4, (Week minus Baseline) divided by Baseline

OCCOCCOc1ccc(/C(=C(/CCCl)c2ccccc2)c2ccccc2)cc1 [Fispemifene, (Z)-2-{2-[4-(4-Chloro-1,2-diphenylbut-1-enyl)phenoxy]ethoxy}ethanol]
Testosterone/E2 Ratio % Change from Baseline to Week 2, Max ([1]; 100 mg): 1.21
Testosterone/E2 Ratio % Change from Baseline to Week 2, Mean ± SD ([1]; 100 mg): 0.21 ± 0.457
Testosterone/E2 Ratio % Change from Baseline to Week 2, Median ([1]; 100 mg): 0.18
Testosterone/E2 Ratio % Change from Baseline to Week 2, Min ([1]; 100 mg): −0.39
Testosterone/E2 Ratio % Change from Baseline to Week 4, Max ([1]; 100 mg): 1.57
Testosterone/E2 Ratio % Change from Baseline to Week 4, Mean ± SD ([1]; 100 mg): 0.22 ± 0.482
Testosterone/E2 Ratio % Change from Baseline to Week 4, Median ([1]; 100 mg): 0.13
Testosterone/E2 Ratio % Change from Baseline to Week 4, Min ([1]; 100 mg): −0.29
Testosterone/E2 Ratio % Change from Baseline to Week 6, Max ([1]; 100 mg): 0.411
Testosterone/E2 Ratio % Change from Baseline to Week 6, Mean ± SD ([1]; 100 mg): −0.002 ± 0.1993
Testosterone/E2 Ratio % Change from Baseline to Week 6, Median ([1]; 100 mg): 0.029
Testosterone/E2 Ratio % Change from Baseline to Week 6, Min ([1]; 100 mg): −0.337
Testosterone/E2 Ratio Actual Value at Baseline (Visit 2), Max ([1]; 100 mg): 27.0
Testosterone/E2 Ratio Actual Value at Baseline (Visit 2), Mean ± SD ([1]; 100 mg): 15.2 ± 6.39
Testosterone/E2 Ratio Actual Value at Baseline (Visit 2), Median ([1]; 100 mg): 14.7
Testosterone/E2 Ratio Actual Value at Baseline (Visit 2), Min ([1]; 100 mg): 5.2
Testosterone/E2 Ratio % Change from Baseline to Week 2, Max ([1]; 200 mg): 0.93
Testosterone/E2 Ratio % Change from Baseline to Week 2, Mean ± SD ([1]; 200 mg): 0.25 ± 0.418
Testosterone/E2 Ratio % Change from Baseline to Week 2, Median ([1]; 200 mg): 0.19
Testosterone/E2 Ratio % Change from Baseline to Week 2, Min ([1]; 200 mg): −0.29
Testosterone/E2 Ratio % Change from Baseline to Week 4, Max ([1]; 200 mg): 1.08
Testosterone/E2 Ratio % Change from Baseline to Week 4, Mean ± SD ([1]; 200 mg): 0.18 ± 0.387
Testosterone/E2 Ratio % Change from Baseline to Week 4, Median ([1]; 200 mg): 0.17
Testosterone/E2 Ratio % Change from Baseline to Week 4, Min ([1]; 200 mg): −0.34
Testosterone/E2 Ratio % Change from Baseline to Week 6, Max ([1]; 200 mg): 0.937
Testosterone/E2 Ratio % Change from Baseline to Week 6, Mean ± SD ([1]; 200 mg): 0.019 ± 0.3760
Testosterone/E2 Ratio % Change from Baseline to Week 6, Median ([1]; 200 mg): −0.030
Testosterone/E2 Ratio % Change from Baseline to Week 6, Min ([1]; 200 mg): −0.517
Testosterone/E2 Ratio Actual Value at Baseline (Visit 2), Max ([1]; 200 mg): 30.2
Testosterone/E2 Ratio Actual Value at Baseline (Visit 2), Mean ± SD ([1]; 200 mg): 14.2 ± 5.73
Testosterone/E2 Ratio Actual Value at Baseline (Visit 2), Median ([1]; 200 mg): 14.9
Testosterone/E2 Ratio Actual Value at Baseline (Visit 2), Min ([1]; 200 mg): 6.3
Testosterone/E2 Ratio % Change from Baseline to Week 2, Max ([1]; 300 mg): 1.43
Testosterone/E2 Ratio % Change from Baseline to Week 2, Mean ± SD ([1]; 300 mg): 0.21 ± 0.372
Testosterone/E2 Ratio % Change from Baseline to Week 2, Median ([1]; 300 mg): 0.15
Testosterone/E2 Ratio % Change from Baseline to Week 2, Min ([1]; 300 mg): −0.24
Testosterone/E2 Ratio % Change from Baseline to Week 4, Max ([1]; 300 mg): 1.12
Testosterone/E2 Ratio % Change from Baseline to Week 4, Mean ± SD ([1]; 300 mg): 0.33 ± 0.428
Testosterone/E2 Ratio % Change from Baseline to Week 4, Median ([1]; 300 mg): 0.36
Testosterone/E2 Ratio % Change from Baseline to Week 4, Min ([1]; 300 mg): −0.53
Testosterone/E2 Ratio % Change from Baseline to Week 6, Max ([1]; 300 mg): 0.65
Testosterone/E2 Ratio % Change from Baseline to Week 6, Mean ± SD ([1]; 300 mg): 0.12 ± 0.250
Testosterone/E2 Ratio % Change from Baseline to Week 6, Median ([1]; 300 mg): 0.11
Testosterone/E2 Ratio % Change from Baseline to Week 6, Min ([1]; 300 mg): −0.29
Testosterone/E2 Ratio Actual Value at Baseline (Visit 2), Max ([1]; 300 mg): 23.1
Testosterone/E2 Ratio Actual Value at Baseline (Visit 2), Mean ± SD ([1]; 300 mg): 11.5 ± 4.87
Testosterone/E2 Ratio Actual Value at Baseline (Visit 2), Median ([1]; 300 mg): 10.6
Testosterone/E2 Ratio Actual Value at Baseline (Visit 2), Min ([1]; 300 mg): 1.7
Inhibin B % Change from Baseline to Week 2, Max [2, 3]: 1.64
Inhibin B % Change from Baseline to Week 2, Mean ± SD [2, 3]: 0.24 ± 0.493
Inhibin B % Change from Baseline to Week 2, Median [2, 3]: 0.17
Inhibin B % Change from Baseline to Week 2, Min [2, 3]: −0.44
Inhibin B % Change from Baseline to Week 4, Max [2, 4]: 1.86
Inhibin B % Change from Baseline to Week 4, Mean ± SD [2, 4]: 0.30 ± 0.631

— patent US10500166B2, “Methods for the treatment of erectile dysfunction using fispemifene” (QUATRX PHARMACEUTICALS, priority 2007, dated 2019)
